Several values for one entry are separate records, joined by “and”; a condition that tells them apart may be missing. Equal values may be shown once. Read-outs that look alike come from different tables or passages of the source. Marks after values point to notes of the source that are not given here.
Columns and labels:
Plasma stability, human = assay type: in vitro ADME; settings: for Remaining percentage: after 30 minutes, 5 μM, 37° C.; for plasma stability: human plasma
Description: (§1) The pH of the plasma was checked and recorded. Note: a.
(§2) The final concentration of solvent was 0.5%.
(§3) The assay is performed in duplicate.

Plasma stability, dog = settings: for Remaining percentage: after 30 minutes
Description: The frozen plasma was immediately melted in a water bath of 37° C. The plasma was centrifuged at 3, 220 g for 10 minutes to remove the blood clots and the supernatant was collected into a new test tube. The pH of the plasma was checked and recorded. Note: a. Only plasma that has been melted no more than twice since arrival was used; b. Only plasma in the range of pH 7 to pH 8 was used.
1 mM of working solutions of the test compound and the control compound mevinolin were prepared in DMSO. 1 mM of the working solution of the control compound solution in […] was prepared in acetonitrile. 4 μL of the working solution was added to 796 μL of pre-incubated plasma to achieve 5 μM of final concentration. The final concentration of solvent was 0.5%.
The aliquots of 50 μL of the standard addition plasma were added to new test tubes and incubated in the water bath of 37° C. at approximately 60 rpm for 2 hours. The assay is performed in duplicate. At the end of the two hour incubation, 300 μL of quenched solution at room temperature (acetonitrile containing internal standards (acetonitrile, 100 nM Alprazolam, 500 nM Labetalol and 2 μM ketoprofen)) was added to terminate the reaction. Samples at time 0 were prepared by adding 50 μL of standard addition plasma to the new test tubes with 300 μL of quenched solution at room temperature. The test tubes were mixed by vortex for 5 minutes. The samples in the plates were centrifuged at 3, 220×g for 30 minutes at 4° C. to precipitate the proteins. 100 μL of supernatant was transferred to a new plate. The supernatant was diluted with 100 μL of water, mixed well and analysed using LC-MS/MS.

Plasma stability, mouse = assay type: in vitro ADME; settings: for Remaining percentage: after 30 minutes; for plasma stability: mouse plasma
Description: as §1, §2, §3

PANC1 cells = test: Clonogenic assay, PANC1; assay type: cell-based, human; settings: for IC90: Homo sapiens, PANC-1, 3 h
Description: (§4) The following PSN-1 cells, PANC1 cells, MiaPaCa-2 cells, H460 cells, DLD-1 WT (wild type) cells, DLD-1 BRCA2 KO (BRCA2 deletion) cells were seeded in 10 cm vitreous cell culture plates at specific cell numbers and incubated for 2 days at 37° C. and under the conditions of 5% CO2, 95% air and 100% relative humidity. On day 3, test compounds TH302 or AST-002-P2 at the specific concentrations were added to the cells, and incubated for 3 hours together with the cells under normoxic (21% O2) and hypoxic conditions (<0.01% O2), respectively. After cells were stimulated by compounds, the cells were washed once with 1×PBS and digested into single cells with pancreatic enzymes for cell counting. The above cells in specific cell numbers were reseeded in a new culture plate and cultured for 7 days to perform single cell colony formation. When single cells in compound culture plates stimulated under normoxic conditions proliferated to about 50 cells, the cultures were removed and stained with 0.5% crystal violet for 40 minutes. After staining, cells were counted for colonies using Colony Counter (VWR) and the IC90 was calculated.

PSN-1 cells = test: Clonogenic assay, PSN-1; assay type: cell-based, human; settings: for IC90: Homo sapiens, PSN1, 3 h; for HCR: IC90 ratio normoxic/N2
Description: as §4

[1] = 21% O2, read-out: IC90 Normoxia
[2] = <0.01% O2, read-out: IC90 Hypoxia

O=[N+]([O-])c1ccc(C(OP(=O)(N2CC2)N2CC2)C(F)(F)F)c2ccccc12 (racemic) [Compound A]
Remaining percentage (%) (Plasma stability, human; Human plasma, 15 min): 108 ± 0.773%
Remaining percentage (%) (Plasma stability, human; Human plasma, 60 min): 99.2 ± 3.39%
Remaining percentage (%) (Plasma stability, human; Human plasma, 90 min): 93.8 ± 3.12%
Remaining percentage (%) (Plasma stability, human; Human plasma, 120 min): 89.7% and 89.7 ± 4.43%
Remaining percentage (%) (Plasma stability, human; Human plasma, 2 h time course, 0 min): 100%
Remaining percentage (Plasma stability, human; Human plasma): 68.68%
t½ (Plasma stability, human; Human plasma, in vitro): >373* min
half-life at 5 µM (Plasma stability, human; Human plasma, in vitro, read-out: t½): > 6.22 h
Remaining percentage (%) (Plasma stability, human; Human plasma, time course, 30 min): 102 ± 3.85%
plasma stability (Plasma stability, human): stable
Remaining percentage (%) (Plasma stability, dog; Dog plasma, 15 min): 107 ± 2.54%
Remaining percentage (%) (Plasma stability, dog; Dog plasma, 60 min): 101 ± 5.20%
Remaining percentage (%) (Plasma stability, dog; Dog plasma, 90 min): 105 ± 3.67%
Remaining percentage (%) (Plasma stability, dog; Dog plasma, 120 min): 98.9% and 98.9 ± 0.476%
Remaining percentage (%) (Plasma stability, dog; Dog plasma, 2 h time course, 0 min): 100%
Remaining percentage (Plasma stability, dog; Dog plasma): 85.04%
t½ (Plasma stability, dog; Dog plasma, in vitro): >373* min
Remaining percentage (%) (Plasma stability, dog; Dog plasma, time course, 30 min): 105 ± 1.27%
half-life at 5 µM (Plasma stability, dog; dog plasma): > 6.22 h
plasma stability (Plasma stability, dog; dog plasma): stable
Remaining percentage (%) (Plasma stability, mouse; Mouse plasma, 15 min): 104 ± 2.96%
Remaining percentage (%) (Plasma stability, mouse; Mouse plasma, 60 min): 86.6 ± 3.16%
Remaining percentage (%) (Plasma stability, mouse; Mouse plasma, 90 min): 76.9 ± 2.40%
Remaining percentage (%) (Plasma stability, mouse; Mouse plasma, 120 min): 66.4% and 66.4 ± 0.993%
Remaining percentage (%) (Plasma stability, mouse; Mouse plasma, 2 h time course, 0 min): 100%
Remaining percentage (Plasma stability, mouse; Mouse plasma): 55.07%
half-life at 5 µM (Plasma stability, mouse; Mouse plasma, in vitro, read-out: t½): 3.15 h
Remaining percentage (%) (Plasma stability, mouse; Mouse plasma, time course, 30 min): 97.7 ± 4.71%
plasma stability (Plasma stability, mouse): unstable

O=[N+]([O-])c1ccc([C@@H](OP(=O)(N2CC2)N2CC2)C(F)(F)F)c2ccccc12 (single isomer, unassigned) [Compound C]
IC90 (PANC1 cells; [1]): > 10 µM
IC90 (PANC1 cells; [2]): > 1 µM
IC90 (PSN-1 cells; [1]): > 1 µM
IC90 (PSN-1 cells; [2]): 0.286 µM
HCR (PSN-1 cells): >3.5

CC(OP(=O)(N1CC1)N1CC1)c1ccc([N+](=O)[O-])c2ccccc12 (stereo not shown) [Compound D]
Remaining percentage (Plasma stability, human; Human plasma): 97.06%
plasma stability (Plasma stability, human): secondarily
Remaining percentage (Plasma stability, dog; Dog plasma): 91.95%
plasma stability (Plasma stability, dog; dog plasma): relatively stable
Remaining percentage (Plasma stability, mouse; Mouse plasma): 87.35%
plasma stability (Plasma stability, mouse): relatively unstable

Cn1c(COP(=O)(NCCBr)NCCBr)cnc1[N+](=O)[O-] [TH-302, Evofosfamide]
IC90 (PANC1 cells; [1]): > 100 µM
IC90 (PANC1 cells; [2]): 7.29 µM
HCR (PANC1 cells; IC90 ratio normoxic/N2): >13.7
IC90 (PSN-1 cells; [1]): 30.5 µM
IC90 (PSN-1 cells; [2]): 0.164 µM
HCR (PSN-1 cells): 186
